This note sets out measurements from patent publication US20140303045A1, “Biocidal Systems and Methods of Use” (Kemira Oyj, priority 2013, published 2014).

One data set concerns SRB. Put plainly: Planktonic biocide efficacy, MPN enumeration, SRB. The format is cell-based. Particulars: FIG. 8 versus FIG. 14.
Data set [1] in a line: pH assessment and visual compatibility of first biocide with AMA-324 in polymer solution. Type of data set: physicochemical. Particulars: for pH end: AMA-324 plus first biocide mixed 30 minutes, AMA-324 alone stirred 40 minutes; for pH after addition of first biocide: polymer solution with AMA-324 100 ppm plus first biocide 100 ppm (active), DBNPA 50 ppm; for Observations on adjusted pH solution: polymer solution with AMA-324 plus first biocide, after pH adjustment, visual appearance. The protocol: Seven standard polymer solutions were prepared by preparing a commercially-available polyacrylamide polymer using standard methods. The polymer was added to artificial seawater formulation (approximately 27° C., with the pH adjusted to 6.5 and buffered accordingly) and the solution was mixed utilizing a magnetic stirrer to obtain 200 mL of a 300 ppm (active) polymer solution. After mixing, the initial pH of each polymer solution was measured and recorded. The pH was measured using a calibrated bench top pH meter.
After the initial pH reading, 1 mL of the AMA-324 stock solution was added to 200 mL of the polymer solution to provide 100 ppm (active) of the biocide, and mixed for 10 minutes. The pH of the solution with the AMA-324 was then measured and recorded.
Following pH measurement of the polymer solutions containing AMA-324, 1 mL of a first biocide component stock solution (as described in Table 1) was added to each polymer mixture. The concentration of the biocide stock solutions were prepared to provide 100 ppm (active) in the polymer solution, except for DBNPA which was evaluated at 50 ppm (active). The polymer solutions with the AMA-324 and the first biocide components were mixed for 30 minutes, after which the pH was again measured.
Finally, one control experiment was performed with only the addition of AMA-324 to the polymer solution, stirred for 40 minutes with no other biocide addition.

“Also recorded” adds a separate entry of the source.

For the compound “tetrakis(hydroxymethyl) phosphonium sulfate [THPS]”, in the data set with SRB, the “Synergistic effect of dual biocide system with AMA-324” value is reported as “synergistic effect”. In data set [1], the pH end is listed as 7.13, the “pH after addition of first biocide” value is given as 6.8 and the “Observations on adjusted pH solution” value is recorded as “clear”.
The corresponding values for `O=CCCCC=O` [GLUT, Glutaraldehyde] are “synergistic effect”, 9.12, 9.29 and “clear”.
Turning to `N#CC(Br)(Br)C(N)=O` [DBNPA, 2,2-dibromo-3-nitrilopropionamide], in data set [1], the pH end amounted to 8.44, the “pH after addition of first biocide” value is on record as 8.04 and the “Observations on adjusted pH solution” value was “some turbidity; also recorded: cloudy”.
With “C12-16-alkyl dimethyl benzyl ammonium chloride [ADBAC quat]”, in data set [1], the pH end came out at 9.18, the “pH after addition of first biocide” value turned out to be 9.57 and the “Observations on adjusted pH solution” value is “cloudy”. The “Observations on adjusted pH solution” value in data set [1] (listed as ADBAC Quat) is “some turbidity”.
